Columns and labels:
Type in all cases: in vivo
[1] = tested on: sicklepod (Cassia obtusifolia, CASOB); assay: Pre-emerge test, greenhouse herbicide activity screening; conditions: pre-emerge, 14 days after application, rating scale 0-100
Method in brief: (§1)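 Herbicidal damage is scored 0 (none) to 100 (complete plant death) two weeks after a simulated field spray. Rates span 15–1000 g ai/ha, delivered in acetone at 187 l/ha. For post-emergence treatments, plants have 2–3 leaves and the spray carries 0.25% v/v non-ionic surfactant.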

[2] = tested on: green foxtail (Setaria viridis, SETVI); assay: as above; conditions: pre-emerge, 14 days after application, rating scale 0-100
Method in brief: as §1

[3] = tested on: lambsquarters (Chenopodium album, CHEAL); assay: as above; conditions: pre-emerge, 14 days after application, rating scale 0-100
Method in brief: as §1

[4] = tested on: large crabgrass (Digitaria sanguinalis, DIGSA); assay: as above; conditions: pre-emerge, 14 days after application, rating scale 0-100
Method in brief: as §1

[5] = tested on: ivyleaf morningglory (Ipomoea hederacea, IPOHE); assay: as above; conditions: pre-emerge, 14 days after application, rating scale 0-100
Method in brief: as §1

[6] = tested on: johnsongrass (Sorghum halepense, SORHA); assay: as above; conditions: pre-emerge, 14 days after application, rating scale 0-100
Method in brief: as §1

[7] = tested on: barnyardgrass (Echinochloa crus-galli, ECHCG); assay: as above; conditions: pre-emerge, 14 days after application, rating scale 0-100
Method in brief: as §1

[8] = tested on: velvetleaf (Abutilon theophrasti, ABUTH); assay: as above; conditions: pre-emerge, 14 days after application, rating scale 0-100
Method in brief: as §1

[9] = tested on: field corn (Zea mays L., var. Dekalb 535, CORN); assay: Post-emerge test, crop safety; conditions: post-emerge, 14 days after application, rating scale 0-100
Method in brief: as §1

[10] = tested on: upland rice (Oryza sp., var. Tebonnet, RICE); assay: Post-emerge test, crop safety; conditions: post-emerge, 14 days after application, rating scale 0-100
Method in brief: as §1

[11] = tested on: field corn (Zea mays L., var. Dekalb 535, CORN); assay: Pre-emerge test, crop safety; conditions: pre-emerge, 14 days after application, rating scale 0-100
Method in brief: (§2)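 Plants grown in 10 cm pots of sandy loam mix received acetone-dissolved compounds through a moving flat-fan nozzle. Doses ranged from 15 to 1000 g ai/ha. Pre-emerge pots were seeded one day earlier, post-emerge pots 8–21 days earlier. Fourteen days on, each pot was graded 0–100 for damage.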

[12] = tested on: upland rice (Oryza sp., var. Tebonnet, RICE); assay: Pre-emerge test, crop safety; conditions: pre-emerge, 14 days after application, rating scale 0-100
Method in brief: as §2

[13] = tested on: sicklepod (Cassia obtusifolia, CASOB); assay: Post-emerge test, greenhouse herbicide activity screening; conditions: post-emerge, 14 days after application, rating scale 0-100
Method in brief: (§3)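 Compounds in acetone were track-sprayed at 15-1000 g ai/ha (187 l/ha) on sandy loam pots: pre-emerge one day after seeding, post-emerge at 2-3 leaf stage with 0.25% v/v non-ionic surfactant. Phytotoxicity was rated 14 days later on a 0 (no damage) to 100 (complete death) scale.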

[14] = tested on: green foxtail (Setaria viridis, SETVI); assay: as above; conditions: post-emerge, 14 days after application, rating scale 0-100
Method in brief: as §3

[15] = tested on: lambsquarters (Chenopodium album, CHEAL); assay: as above; conditions: post-emerge, 14 days after application, rating scale 0-100
Method in brief: as §3

[16] = tested on: redroot pigweed (Amaranthus retroflexus, AMARE); assay: as above; conditions: post-emerge, 14 days after application
Method in brief: as §3

[17] = tested on: large crabgrass (Digitaria sanguinalis, DIGSA); assay: as above; conditions: post-emerge, 14 days after application, rating scale 0-100
Method in brief: as §3

[18] = tested on: ivyleaf morningglory (Ipomoea hederacea, IPOHE); assay: as above; conditions: post-emerge, 14 days after application, rating scale 0-100
Method in brief: as §3

[19] = tested on: johnsongrass (Sorghum halepense, SORHA); assay: as above; conditions: post-emerge, 14 days after application, rating scale 0-100
Method in brief: as §3

[20] = tested on: barnyardgrass (Echinochloa crus-galli, ECHCG); assay: as above; conditions: post-emerge, 14 days after application, rating scale 0-100
Method in brief: as §3

[21] = tested on: velvetleaf (Abutilon theophrasti, ABUTH); assay: as above; conditions: post-emerge, 14 days after application, rating scale 0-100
Method in brief: as §3

[22] = tested on: redroot pigweed (Amaranthus retroflexus, AMARE); assay: Pre-emerge test, greenhouse herbicide activity screening; conditions: pre-emerge, 14 days after application, rating scale 0-100
Method in brief: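 Visual ratings on a 0-100 scale (0 no damage, 100 all plants dead) were taken at 14 days after treatment. Rates of 15-1000 g ai/ha in acetone, 187 l/ha, were sprayed onto soil one day after planting (pre-emerge) or onto 2-3 leaf plants with 0.25% v/v surfactant (post-emerge).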

[23] = 63 g ai/ha, rating scale 0-100 (0 no damage, 100 complete death)
[24] = 250 g ai/ha, rating scale 0-100

COc1c(Cl)cc(F)c(-n2c(=O)cc(C(F)(F)F)n(C)c2=O)c1SC(C)C [17-2]
phytotoxicity rating CASOB ([1]; 63 g ai/ha): 0 | phytotoxicity rating CASOB ([1]; 250 g ai/ha): 0 | phytotoxicity rating SETVI ([2]; 63 g ai/ha): 0 | phytotoxicity rating SETVI ([2]; 250 g ai/ha): 0 | phytotoxicity rating CHEAL ([3]; 63 g ai/ha): 60 | phytotoxicity rating CHEAL ([3]; 250 g ai/ha): 90 | phytotoxicity rating DIGSA ([4]; 63 g ai/ha): 0 | phytotoxicity rating DIGSA ([4]; 250 g ai/ha): 0 | phytotoxicity rating IPOHE ([5]; 63 g ai/ha): 0 | phytotoxicity rating IPOHE ([5]; 250 g ai/ha): 0 | phytotoxicity rating SORHA ([6]; 63 g ai/ha): 0 | phytotoxicity rating SORHA ([6]; 250 g ai/ha): 0 | phytotoxicity rating ECHCG ([7]; 63 g ai/ha): 0 | phytotoxicity rating ECHCG ([7]; 250 g ai/ha): 0 | phytotoxicity rating ABUTH ([8]; 63 g ai/ha): 0 | phytotoxicity rating ABUTH ([8]; 250 g ai/ha): 20 | Post-emerge Herbicidal Activity CORN (crop damage rating) ([9]; 63 g ai/ha): 0 | Post-emerge Herbicidal Activity CORN (crop damage rating) ([9]; 250 g ai/ha): 0 | Post-emerge Herbicidal Activity RICE (crop damage rating) ([10]; 63 g ai/ha): 0 | Post-emerge Herbicidal Activity RICE (crop damage rating) ([10]; 250 g ai/ha): 0 | phytotoxicity rating CORN ([11]; 63 g ai/ha): 0 | phytotoxicity rating CORN ([11]; 250 g ai/ha): 0 | phytotoxicity rating RICE ([12]; 63 g ai/ha): 0 | phytotoxicity rating RICE ([12]; 250 g ai/ha): 0 | Post-emerge Herbicidal Activity CASOB (phytotoxicity rating) ([13]; 63 g ai/ha): 0 | Post-emerge Herbicidal Activity CASOB (phytotoxicity rating) ([13]; 250 g ai/ha): 10 | Post-emerge Herbicidal Activity SETVI (phytotoxicity rating) ([14]; 63 g ai/ha): 0 | Post-emerge Herbicidal Activity SETVI (phytotoxicity rating) ([14]; 250 g ai/ha): 0 | Post-emerge Herbicidal Activity CHEAL (phytotoxicity rating) ([15]; 63 g ai/ha): 0 | Post-emerge Herbicidal Activity CHEAL (phytotoxicity rating) ([15]; 250 g ai/ha): 40 | Post-emerge Herbicidal Activity AMARE (phytotoxicity rating) [16, 23]: 0 | Post-emerge Herbicidal Activity AMARE (phytotoxicity rating) [16, 24]: 30 | Post-emerge Herbicidal Activity DIGSA (phytotoxicity rating) ([17]; 63 g ai/ha): 0 | Post-emerge Herbicidal Activity DIGSA (phytotoxicity rating) ([17]; 250 g ai/ha): 0 | Post-emerge Herbicidal Activity IPOHE (phytotoxicity rating) ([18]; 63 g ai/ha): 0 | Post-emerge Herbicidal Activity IPOHE (phytotoxicity rating) ([18]; 250 g ai/ha): 20 | Post-emerge Herbicidal Activity SORHA (phytotoxicity rating) ([19]; 63 g ai/ha): 0 | Post-emerge Herbicidal Activity SORHA (phytotoxicity rating) ([19]; 250 g ai/ha): 0 | Post-emerge Herbicidal Activity ECHCG (phytotoxicity rating) ([20]; 63 g ai/ha): 0 | Post-emerge Herbicidal Activity ECHCG (phytotoxicity rating) ([20]; 250 g ai/ha): 0 | Post-emerge Herbicidal Activity ABUTH (phytotoxicity rating) ([21]; 63 g ai/ha): 0 | Post-emerge Herbicidal Activity ABUTH (phytotoxicity rating) ([21]; 250 g ai/ha): 50 | phytotoxicity rating AMARE ([22]; 63 g ai/ha): 30 | phytotoxicity rating AMARE ([22]; 250 g ai/ha): 60

COc1c(Cl)cc(F)c(-n2c(=O)cc(C(F)(F)F)n(C)c2=O)c1Sc1ccc2ccccc2c1 [17-4]
phytotoxicity rating CASOB ([1]; 63 g ai/ha): 0 | phytotoxicity rating CASOB ([1]; 250 g ai/ha): 10 | phytotoxicity rating SETVI ([2]; 63 g ai/ha): 0 | phytotoxicity rating SETVI ([2]; 250 g ai/ha): 20 | phytotoxicity rating CHEAL ([3]; 63 g ai/ha): 20 | phytotoxicity rating CHEAL ([3]; 250 g ai/ha): 70 | phytotoxicity rating DIGSA ([4]; 63 g ai/ha): 0 | phytotoxicity rating DIGSA ([4]; 250 g ai/ha): 10 | phytotoxicity rating IPOHE ([5]; 63 g ai/ha): 0 | phytotoxicity rating IPOHE ([5]; 250 g ai/ha): 10 | phytotoxicity rating SORHA ([6]; 63 g ai/ha): 0 | phytotoxicity rating SORHA ([6]; 250 g ai/ha): 0 | phytotoxicity rating ECHCG ([7]; 63 g ai/ha): 0 | phytotoxicity rating ECHCG ([7]; 250 g ai/ha): 0 | phytotoxicity rating ABUTH ([8]; 63 g ai/ha): 0 | phytotoxicity rating ABUTH ([8]; 250 g ai/ha): 60 | Post-emerge Herbicidal Activity CORN (crop damage rating) ([9]; 63 g ai/ha): 0 | Post-emerge Herbicidal Activity CORN (crop damage rating) ([9]; 250 g ai/ha): 0 | Post-emerge Herbicidal Activity RICE (crop damage rating) ([10]; 63 g ai/ha): 0 | Post-emerge Herbicidal Activity RICE (crop damage rating) ([10]; 250 g ai/ha): 0 | phytotoxicity rating CORN ([11]; 63 g ai/ha): 0 | phytotoxicity rating CORN ([11]; 250 g ai/ha): 0 | phytotoxicity rating RICE ([12]; 63 g ai/ha): 0 | phytotoxicity rating RICE ([12]; 250 g ai/ha): 10 | Post-emerge Herbicidal Activity CASOB (phytotoxicity rating) ([13]; 63 g ai/ha): 10 | Post-emerge Herbicidal Activity CASOB (phytotoxicity rating) ([13]; 250 g ai/ha): 20 | Post-emerge Herbicidal Activity SETVI (phytotoxicity rating) ([14]; 63 g ai/ha): 0 | Post-emerge Herbicidal Activity SETVI (phytotoxicity rating) ([14]; 250 g ai/ha): 0 | Post-emerge Herbicidal Activity CHEAL (phytotoxicity rating) ([15]; 63 g ai/ha): 20 | Post-emerge Herbicidal Activity CHEAL (phytotoxicity rating) ([15]; 250 g ai/ha): 40 | Post-emerge Herbicidal Activity AMARE (phytotoxicity rating) [16, 23]: 20 | Post-emerge Herbicidal Activity AMARE (phytotoxicity rating) [16, 24]: 70 | Post-emerge Herbicidal Activity DIGSA (phytotoxicity rating) ([17]; 63 g ai/ha): 0 | Post-emerge Herbicidal Activity DIGSA (phytotoxicity rating) ([17]; 250 g ai/ha): 0 | Post-emerge Herbicidal Activity IPOHE (phytotoxicity rating) ([18]; 63 g ai/ha): 20 | Post-emerge Herbicidal Activity IPOHE (phytotoxicity rating) ([18]; 250 g ai/ha): 80 | Post-emerge Herbicidal Activity SORHA (phytotoxicity rating) ([19]; 63 g ai/ha): 0 | Post-emerge Herbicidal Activity SORHA (phytotoxicity rating) ([19]; 250 g ai/ha): 0 | Post-emerge Herbicidal Activity ECHCG (phytotoxicity rating) ([20]; 63 g ai/ha): 0 | Post-emerge Herbicidal Activity ECHCG (phytotoxicity rating) ([20]; 250 g ai/ha): 0 | Post-emerge Herbicidal Activity ABUTH (phytotoxicity rating) ([21]; 63 g ai/ha): 35 | Post-emerge Herbicidal Activity ABUTH (phytotoxicity rating) ([21]; 250 g ai/ha): 70 | phytotoxicity rating AMARE ([22]; 63 g ai/ha): 30 | phytotoxicity rating AMARE ([22]; 250 g ai/ha): 100

From patent publication US6355799B1, “Substituted benzene compounds, process for their preparation, and herbicidal and defoliant compositions containing them” (ISK Americas Incorporated, priority 1997, dated 2002)
